# Experimental data published in ChEMBL document CHEMBL4680133, “Novel nitroimidazole derivatives evaluated for their trypanocidal, cytotoxic, and genotoxic activities” (Eur J Med Chem, 2020).
# Tested on: RAW264.7
# Assay: Genotoxicity in mouse RAW264.7 cells assessed as mitotic index at 2135 uM measured after 24 hrs by micronucleus test (reference value: 40 to 249)
# Format: toxicity, cell-based
# Conditions: raw264.7, 24 h
structure (smiles),measurement,value
Cn1cnc([N+](=O)[O-])c1-n1cc(C2CC2)nn1,Activity_index,37
